From PMC7998669, “7-(2-Anilinopyrimidin-4-yl)-1-benzazepin-2-ones Designed by a “Cut and Glue” Strategy Are Dual Aurora A/VEGF-R Kinase Inhibitors” (Molecules, 2021)

Test system: COLO 205
Assay: NCI cancer cell line screen (sulforhodamin B)
Assay type: cell-based
Conditions: Homo sapiens; COLO 205, Colon; 48 h; read-out: log10 GI50 (converted)
In short: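 Here, tumour cells were treated for 48 h. Trichloroacetic acid fixation preceded sulforhodamine B staining. Dye was washed, dissolved and quantified by optical density against untreated controls.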

**Q.** Which GI50 does the source give for `COc1ccc(Nc2nccc(-c3ccc4c(c3)CCCC(=O)N4)n2)cc1O` [Compound 2n, 7-[2-(3-Hydroxy-4-methoxyanilino)pyrimidin-4-yl]-1,3,4,5-tetrahydro-2H-1-benzazepin-2-one] here?
**A.** The GI50 was 26.3 µM.
